# Laboratory results from patent US11780843B2, “Compounds active towards nuclear receptors” (NUEVOLUTION A/S, priority 2020, dated 2023).
# pIC50: −log10 of the molar value.
# Molecular target: T1, RORγ ligand-binding domain (Homo sapiens, UniProt P51449)
# T1 construct: Gal4 (galactose-responsive transcription factor); expressed in transfected cells; host or cells: HEK293, transient co-transfection
# T1 sequence (P51449 269-508 limits assumed): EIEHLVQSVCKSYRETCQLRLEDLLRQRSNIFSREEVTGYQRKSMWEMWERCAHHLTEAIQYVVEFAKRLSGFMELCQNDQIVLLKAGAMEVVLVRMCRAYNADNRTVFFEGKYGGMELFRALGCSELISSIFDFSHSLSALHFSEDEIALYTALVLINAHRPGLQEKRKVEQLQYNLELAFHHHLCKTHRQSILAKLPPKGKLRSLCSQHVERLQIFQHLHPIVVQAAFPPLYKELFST
# Assay: RORγ Reporter Assay (Gal4)
# Format: cell-based
# Details: HEK293 cells, luciferase reporter, 24 h incubation, absolute IC50; read-out: IC50
# Method: The HEK293 cell line is co-transfected transiently with two plasmids, one with the RORγ ligand-binding domain fused to galactose-responsive transcription factor (Ga14), and the other with the luciferase reporter gene and Gal binding sites (UAS). This construction allows to determine the RORT activity in a cellular system through the measurement of luminescence.
# A suspension of RORγ reporter cells was dispensed into plates and cultured 2 h at 37° C. and 5% CO2. Media formulation consisted in DMEM/F-12 medium (Gibco) supplemented with 10% heat inactivated FBS (Sigma-Aldrich), non-essential aminoacids (Sigma-Aldrich), 2 mM Glutamax (Gibco) and 100 U/mL penicillin (Sigma-Aldrich). Dose-response curves with compounds were prepared in 100% DMSO and further diluted 100-fold in culture medium. Compound solutions were added to the plate containing cells (final DMSO concentration of 0.1%) and incubated for 24 h at 37° C. and 5% CO2. Luciferase detection reagent was added to each well, and relative light units (RLUs) were quantified from each assay well using a plate reading luminometer.
# Values of average RLU±S.D. were computed for all treatment sets, followed by the calculations of percent-reduction of RORT activity in response to respective test compound. The following formula was used: activity=100*[1−[[…]] where the theoretical minimum reduction (0% reduction). […] These calculations were performed in excel-fit software using X-204 model curve.
row,SMILES,pIC50
1,"NC(=O)CN1CC[C@@H](Cn2cc(F)c3c(N(Cc4cnc(C(F)(F)F)nc4)C4CC4)ncnc32)[C@H](O)C1 (racemic) [Example P6-17, rac-2-((3R,4R)-4-((4-(cyclopropyl((2-(trifluoromethyl)pyrimidin-5-yl)methyl)amino)-5-fluoro-7H-pyrrolo[2,3-d]pyrimidin-7-yl)methyl)-3-hydroxypiperidin-1-yl)acetamide]",7.37
2,"NC(=O)CN1CCC(Cn2ccc3c(N4CCOC[C@@H]4c4ccc(C(F)(F)F)cn4)ncnc32)CC1 [Example Q4-2, (S)-2-(4-((4-(3-(5-(trifluoromethyl)pyridin-2-yl)morpholino)-7H-pyrrolo[2,3-d]pyrimidin-7-yl)methyl)piperidin-1-yl)acetamide]",6.48
3,"CC(C)(C(N)=O)N1CCC(Cn2cnc3c(N(Cc4ccc(C(F)(F)F)cc4)C4CC4)ncnc32)CC1 [Example P6-09, 2-(4-((6-(cyclopropyl(4-(trifluoromethyl)benzyl)amino)-9H-purin-9-yl)methyl)piperidin-1-yl)-2-methylpropanamide]",< 6.00
4,"NC(=O)CN1CC[C@@H](Cn2ccc3c(N(Cc4ccc(C(F)(F)F)cc4)C4CC4)ncnc32)[C@H](F)C1 (single isomer, unassigned) [Example K8-2-2]",8.51
5,"NC(=O)CN1CC[C@@H](Cn2ccc3c(N(Cc4ccc(C(F)(F)F)cc4)C4CC4)ncnc32)[C@H](F)C1 (single isomer, unassigned) [Example K8-2-1]",8.21
6,"NC(=O)CN1CC[C@@H](Cn2ccc3c(N4CCOC[C@H]4c4cccc(C(F)(F)F)c4)ncnc32)[C@H](O)C1 (single isomer, unassigned) [Example P6-04-1]",7.33
7,"NC(=O)CN1CC[C@@H](Cn2ccc3c(N4CCOC[C@@H]4c4ccc(C(F)(F)F)cn4)ncnc32)[C@H](F)C1 (single isomer, unassigned) [Example Q4-1-1, 2-((3R*,4R*)-3-fluoro-4-((4-((S)-3-(5-(trifluoromethyl)pyridin-2-yl)morpholino)-7H-pyrrolo[2,3-d]pyrimidin-7-yl)methyl)piperidin-1-yl)acetamide]",6.77
8,"CCN(Cc1ccc(-n2cccn2)cc1F)c1ncnc2c1ccn2C[C@@H]1CCN(CC(N)=O)C[C@H]1O (relative stereo) [P6-36″, rel-2-((3R,4R)-4-((4-(ethyl(2-fluoro-4-(1H-pyrazol-1-yl)benzyl)amino)-7H-pyrrolo[2,3-d]pyrimidin-7-yl)methyl)-3-hydroxypiperidin-1-yl)acetamide]",7.85
9,"CCN(Cc1ccc(-c2cnn(C)c2)cc1)c1ncnc2c1ccn2C[C@@H]1CCN(CC(N)=O)C[C@H]1O (relative stereo) [P6-34″, rel-2-((3R,4R)-4-((4-(ethyl(4-(1-methyl-1H-pyrazol-4-yl)benzyl)amino)-7H-pyrrolo[2,3-d]pyrimidin-7-yl)methyl)-3-hydroxypiperidin-1-yl)acetamide]",7.92
10,"CN(Cc1ccc(C(F)(F)F)cc1)c1ncnc2c1c(F)cn2CC1(O)CCN(CC(N)=O)CC1 [Example 3P6-5, 2-(4-((5-fluoro-4-(methyl(4-(trifluoromethyl)benzyl)amino)-7H-pyrrolo[2,3-d]pyrimidin-7-yl)methyl)-4-hydroxypiperidin-1-yl)acetamide]",7.06
11,"NC(=O)CN1CC[C@@H](Cn2cnc3c(N(Cc4ccc(C(F)(F)F)cc4)C4CC4)ncnc32)[C@H](O)C1 (single isomer, unassigned) [Example P6-26-1]",7.19
12,"CCN(Cc1ccc(-c2cnn(C)c2)cc1F)c1ncnc2c1ccn2C[C@@H]1CCN(CC(N)=O)C[C@H]1O (relative stereo) [P6-35″, rel-2-((3R,4R)-4-((4-(ethyl(2-fluoro-4-(1-methyl-1H-pyrazol-4-yl)benzyl)amino)-7H-pyrrolo[2,3-d]pyrimidin-7-yl)methyl)-3-hydroxypiperidin-1-yl)acetamide]",7.62
13,"NC(=O)CN1CC[C@@H](Cn2ccc3c(N(Cc4ccc(C(F)(F)F)cn4)C4CC4)ncnc32)[C@H](F)C1 (single isomer, unassigned) [Example K8-3-1]",7.12
14,"NC(=O)CN1CC[C@@H](Cn2ccc3c(N(Cc4ccc(C(F)(F)F)cn4)C4CC4)ncnc32)[C@H](F)C1 (single isomer, unassigned) [Example K8-3-2]",7.66
15,"NC(=O)CN1CC[C@@H](Cn2ccc3c(N4CCOC[C@@H]4c4ccc(C(F)(F)F)cc4)ncnc32)[C@H](O)C1 (single isomer, unassigned) [Example P6-01-2, 2-((3R*,4R*)-3-hydroxy-4-((4-((S)-3-(4-(trifluoromethyl)phenyl)morpholino)-7H-pyrrolo[2,3-d]pyrimidin-7-yl)methyl)piperidin-1-yl)acetamide]",7.60
16,"NC(=O)CN1CCC(Cn2cc(F)c3c(N(Cc4ccc(C(F)(F)F)nc4)C4CC4)ncnc32)CC1 [Example P6-10, 2-(4-((4-(cyclopropyl((6-(trifluoromethyl)pyridin-3-yl)methyl)amino)-5-fluoro-7H-pyrrolo[2,3-d]pyrimidin-7-yl)methyl)piperidin-1-yl)acetamide]",7.03
17,"NC(=O)CN1CC[C@@H](Cn2ccc3c(N4CCOC[C@@H]4c4ccc(C(F)(F)F)cc4)ncnc32)[C@H](O)C1 (single isomer, unassigned) [Example P6-01-1, 2-((3R*,4R*)-3-hydroxy-4-((4-((S)-3-(4-(trifluoromethyl)phenyl)morpholino)-7H-pyrrolo[2,3-d]pyrimidin-7-yl)methyl)piperidin-1-yl)acetamide]",7.92
18,"N#Cc1cn(CC2CCN(CC(N)=O)CC2)c2ncnc(N(Cc3ccc(C(F)(F)F)cc3)C3CC3)c12 [Example P6-07, 2-(4-((5-cyano-4-(cyclopropyl(4-(trifluoromethyl)benzyl)amino)-7H-pyrrolo[2,3-d]pyrimidin-7-yl)methyl)piperidin-1-yl)acetamide]",6.55
19,"NC(=O)CN1CC[C@@H](Cn2ccc3c(N4CCOC[C@@H]4c4ccc(C(F)(F)F)cn4)ncnc32)[C@H](F)C1 (single isomer, unassigned) [Example Q4-1-2, 2-((3R*,4R*)-3-fluoro-4-((4-((S)-3-(5-(trifluoromethyl)pyridin-2-yl)morpholino)-7H-pyrrolo[2,3-d]pyrimidin-7-yl)methyl)piperidin-1-yl)acetamide]",6.60
20,"NC(=O)CN1CC[C@@H](Cn2cnc3c(N(Cc4cccc(C(F)(F)F)c4)C4CC4)ncnc32)[C@H](O)C1 (racemic) [Example P6-20, rac-2-((3R,4R)-4-((6-(cyclopropyl(3-(trifluoromethyl)benzyl)amino)-9H-purin-9-yl)methyl)-3-hydroxypiperidin-1-yl)acetamide]",< 6.00
21,"CCN(Cc1ccc(C#N)cc1)c1ncnc2c1ccn2C[C@@H]1CCN(CC(N)=O)C[C@H]1O (relative stereo) [P6-29″, rel-2-((3R,4R)-4-((4-((4-cyanobenzyl)(ethyl)amino)-7H-pyrrolo[2,3-d]pyrimidin-7-yl)methyl)-3-hydroxypiperidin-1-yl)acetamide]",< 6.00
22,"N#Cc1cn(CC2(O)CCN(CC(N)=O)CC2)c2ncnc(N(Cc3ccc(C(F)(F)F)cc3)C3CC3)c12 [Example 3P6-4, 2-(4-((5-cyano-4-(cyclopropyl(4-(trifluoromethyl)benzyl)amino)-7H-pyrrolo[2,3-d]pyrimidin-7-yl)methyl)-4-hydroxypiperidin-1-yl)acetamide]",6.53
23,"CCN(Cc1ccc(-n2cccn2)cc1F)c1ncnc2c1ccn2C[C@@]1(O)CCN(CC(N)=O)C[C@@H]1O (relative stereo) [R5-5″, Rel-2-((3R,4R)-4-((4-(ethyl(2-fluoro-4-(1H-pyrazol-1-yl)benzyl)amino)-7H-pyrrolo[2,3-d]pyrimidin-7-yl)methyl)-3,4-dihydroxypiperidin-1-yl)acetamide]",7.82
24,"NC(=O)CN1CCC(Cn2ccc3c(N(Cc4ccc(C(F)(F)F)cc4)C4CC4)ncnc32)C(F)(F)C1 (single isomer, unassigned) [Example K8-1-2]",8.40
25,"NC(=O)CN1CCC(O)(Cn2cnc3c(N(Cc4ccc(C(F)(F)F)cc4)C4CC4)ncnc32)CC1 [Example 3P6-3, 2-(4-((6-(cyclopropyl(4-(trifluoromethyl)benzyl)amino)-9H-purin-9-yl)methyl)-4-hydroxypiperidin-1-yl)acetamide]",7.14

# Same assay, conditions: Table 5 b; bound estimated from % inhibition at 0.1 and/or 1 uM; read-out: RORγ Gal4 assay (based on % inhibition at 0.1 and/or 1 uM) IC50
row,SMILES,pIC50
1,"NC(=O)Cc1ccc(Cn2ccc3c(N4CCOC[C@@H]4c4ccc(C(F)(F)F)cn4)ncnc32)cc1 [Example 328, reference compound]",> 7.00
2,"NC(=O)Cc1ccc(Cn2ccc3c(N(Cc4ccc(C(F)(F)F)cc4)C4CC4)ncnc32)cc1 [Example I1, reference compound]",> 7.00

# Same assay, conditions: stated as a bound only (Tables 5 a, 6, 7); read-out: Gal4 assay IC50
row,SMILES,pIC50
1,"NC(=O)CN1CCC(Cn2ccc3c(N4CCOC[C@@H]4c4ccc(C(F)(F)F)cn4)ncnc32)CC1 [Example Q4-2, (S)-2-(4-((4-(3-(5-(trifluoromethyl)pyridin-2-yl)morpholino)-7H-pyrrolo[2,3-d]pyrimidin-7-yl)methyl)piperidin-1-yl)acetamide]",> 6.30
2,"NC(=O)CN1CC[C@@H](Cn2ccc3c(N4CCOC[C@@H]4c4ccc(C(F)(F)F)cn4)ncnc32)[C@H](F)C1 (single isomer, unassigned) [Example Q4-1-1, 2-((3R*,4R*)-3-fluoro-4-((4-((S)-3-(5-(trifluoromethyl)pyridin-2-yl)morpholino)-7H-pyrrolo[2,3-d]pyrimidin-7-yl)methyl)piperidin-1-yl)acetamide]",> 6.30
3,"NC(=O)Cc1ccc(Cn2ccc3c(N4CCOC[C@@H]4c4ccc(C(F)(F)F)cn4)ncnc32)cc1 [Example 328, reference compound]",> 7.00
4,"NC(=O)Cc1ccc(Cn2ccc3c(N(Cc4ccc(C(F)(F)F)cc4)C4CC4)ncnc32)cc1 [Example I1, reference compound]",> 7.00
